For assay [1], the system named is peripheral blood lymphocyte number. Briefly: Peripheral blood lymphocyte number decreasing action in mouse. The format is in vivo. Particulars: ip, male BALB/cAnNCrj mice, intraperitoneal, 24 hr after administration, read-out: ED50 (dose necessary for reducing the lymphocyte count of the vehicle group (100%) by 50%).
For assay [2] the test system is unchanged. The experiment in a line: Peripheral blood lymphocyte number decreasing action in rat. The format is in vivo. Particulars: male F344 rats, oral, 24 hr after administration, read-out: ED50 (dose necessary for reducing the lymphocyte count of the vehicle group (100%) by 50%).

The term ED50 denotes the dose that gives a 50% effect, or the effect in half of the subjects.

Each structure is given as a SMILES string.

With `CC[C@](N)(CO)CCc1ccc(OCCCc2ccc(Cl)c(Cl)c2)c(C(F)(F)F)c1.Cl` [Compound 206-3, (R)-2-amino-4-{4-[3-(3,4-dichlorophenyl)propoxy]-3-trifluoromethylphenyl}-2-ethylbutanol hydrochloride], the ED50 in assay [1] was found to be 0.02 mg/kg; in assay [2] it was 0.05 mg/kg.
Consider `Cl.NC(/C=C/c1ccc(OCCCc2ccccc2F)c(C(F)(F)F)c1)(CO)CO` [Compound 101-2, (E)-2-amino-2-(2-{4-[3-(2-fluorophenyl)propoxy]-3-trifluoromethylphenyl}vinyl)propane-1,3-diol hydrochloride], for which, in assay [1], the ED50 was 0.1 mg/kg.
As to `Cl.NC(CO)(CO)CCc1ccc(OCCCc2cccc(OC(F)(F)F)c2)c(C(F)(F)F)c1` [Compound 58-5, 2-amino-2-(2-{4-[3-(3-trifluoromethoxyphenyl)propoxy]-3-trifluoromethylphenyl}ethyl)propane-1,3-diol hydrochloride], the ED50 was found to be 0.06 mg/kg in assay [1] and 0.07 mg/kg in assay [2].
On to `Cl.NC(/C=C/c1ccc(OCCCc2ccccc2)c(C(F)(F)F)c1)(CO)CO` [Compound 100-2, (E)-2-amino-2-{2-[4-(3-phenylpropoxy)-3-trifluoromethylphenyl]vinyl}propane-1,3-diol hydrochloride], for which the ED50 in assay [1] and in assay [2] was 0.07 mg/kg throughout.
`C[C@](N)(CO)CCc1ccc(OCCCc2ccc(C(F)(F)F)cc2)c(C(F)(F)F)c1.Cl` [Compound 29-1, (R)-2-amino-2-methyl-4-{3-trifluoromethyl-4-[3-(4-trifluoromethylphenyl)propoxy]phenyl}butanol hydrochloride]: the ED50 in assay [2] worked out at 0.03 mg/kg.
Regarding `CC[C@](N)(CO)CCc1ccc(OCCCc2ccc(C(F)(F)F)cc2)c(C(F)(F)F)c1.Cl` [Compound 32-1, (R)-2-amino-2-ethyl-4-{3-trifluoromethyl-4-[3-(4-trifluoromethylphenyl)propoxy]phenyl}butanol hydrochloride], the ED50 in assay [2] was found to be 0.02 mg/kg.
Regarding `Cl.NC(CO)(CO)CCc1ccc(OCCCc2ccc(C(F)(F)F)c(F)c2)c(C(F)(F)F)c1` [Compound 68-4, 2-amino-2-(2-{4-[3-(3-fluoro-4-trifluoromethylphenyl)propoxy]-3-trifluoromethylphenyl}ethyl)propane-1,3-diol hydrochloride], the median effective dose (ED50) in assay [1] was found to be 0.04 mg/kg; in assay [2], 0.09 mg/kg.
On to `CC[C@](N)(CO)CCc1ccc(OCCCc2cccc(OC(F)(F)F)c2)c(C(F)(F)F)c1.Cl` [Compound 220-2, (R)-2-amino-2-ethyl-4-{4-[3-(3-trifluoromethoxyphenyl)propoxy]-3-trifluoromethylphenyl}butanol hydrochloride], for which the ED50 in assay [2] amounted to 0.03 mg/kg.
In the case of `CC[C@](N)(CO)CCc1ccc(OCCCc2ccc(OC(F)(F)F)cc2)c(C(F)(F)F)c1.Cl` [Compound 218-2, (R)-2-amino-2-ethyl-4-{4-[3-(4-trifluoromethoxyphenyl)propoxy]-3-trifluoromethylphenyl}butanol hydrochloride], in assay [2], the ED50 was 0.03 mg/kg.
As to `Cl.NC(CO)(CO)CCc1ccc(OC/C=C/c2cccc(Cl)c2)c(C(F)(F)F)c1` [Compound 89-2, 2-amino-2-(2-{4-[3-(3-chlorophenyl)allyloxy]-3-trifluoromethylphenyl}ethyl)propane-1,3-diol hydrochloride], the ED50 in assay [1] was determined as 0.04 mg/kg; in assay [2], 0.06 mg/kg.

The values are drawn from patent publication US8129361B2, “Amine compound and pharmaceutical use thereof” (Mitsubishi Tanabe Pharma Corporation, priority 2007, dated 2012).
